Values quoted from earlier work as cited in patent US10806792B2 (Mayne Pharma International Pty Ltd., priority 2012, dated 2020).
Where two headings read alike, the source gives them in different places.

What was measured:
[1] = tested on: typical infecting organisms for specific superficial and systemic mycoses; conditions: for MIC RANGE: in µg/mL

Structure (SMILES): CCC(C)n1ncn(-c2ccc(N3CCN(c4ccc(OCC5COC(Cn6cncn6)(c6ccc(Cl)cc6Cl)O5)cc4)CC3)cc2)c1=O (stereo not drawn) [itraconazole]
- MIC RANGE ([1]; A. flavus complex, Aspergillosis): 0.03-8
- MIC RANGE ([1]; A. nidulans complex, Aspergillosis): 0.03-8
- MIC RANGE ([1]; A. niger complex, Aspergillosis): 0.03-8
- MIC RANGE ([1]; A. terreus complex, Aspergillosis): 0.03-1
- MIC RANGE ([1]; C. albicans, Candidiasis): 0.008-8
- MIC90 ([1]; C. glabrata, Candidiasis): MIC90 = 16
- MIC RANGE ([1]; C. kruset, Candidiasis): 0.008-8
- MIC RANGE ([1]; C. parapsilosis, Candidiasis): 0.016-2
- MIC RANGE ([1]; C. tropicalis, Candidiasis): 0.03-8
- MIC RANGE ([1]; Epidermophyton floccosum, tinea corporis): 0.01-8
- MIC RANGE ([1]; Epidermophyton floccosum, tinea cruris): 0.01-8
- MIC RANGE ([1]; Epidermophyton floccosum, tinea manuum): 0.01-8
- MIC RANGE ([1]; Epidermophyton floccosum, tinea pedis): 0.01-8
- MIC RANGE ([1]; Epidermophyton floccosum, tinea unguium): 0.01-8
- MIC RANGE ([1]; Microsporum sp. (audounti, canis, gypseum, ferrugineum et al.), tinea capitis): 0.01-4
- MIC RANGE ([1]; Microsporum sp. (canis, et al.), tinea cruris): 0.01-4
- MIC RANGE ([1]; Microsporum sp. (canis, et al.), tinea unguium): 0.01-4
- MIC RANGE ([1]; Microsporum sp. (canis, gypseum, et al.), tinea corporis): 0.01-4
- MIC RANGE ([1]; Microsporum sp. (canis, gypseum, et al.), tinea pedis): 0.01-4
- MIC RANGE ([1]; Trichophyton sp. (rubrum, interdigitale, mentagrophytes.), tinea manuum): 0.01-8
- MIC RANGE ([1]; Trichophyton sp. (rubrum, tonsurans interdigitale, mentagrophytes, concentricim, violaceum et al.), tinea corporis): 0.01-8
- MIC RANGE ([1]; Trichophyton sp. (rubrum, tonsurans interdigitale, mentagrophytes, et al.), tinea cruris): 0.01-8
- MIC RANGE ([1]; Trichophyton sp. (rubrum, tonsurans interdigitale, mentagrophytes, et al.), tinea pedis): 0.01-8
- MIC RANGE ([1]; Trichophyton sp. (rubrum, tonsurans interdigitale, mentagrophytes, et al.), tinea unguium): 0.01-8
- MIC RANGE ([1]; Trichophyton sp. (tonsurans violaceum, soudanese, schoenleinii, mentagrophytes, verrucossum, et al.), tinea capitis): 0.01-8
- absolute oral bioavailability (100 mg dose of itraconazole oral solution): approximately 55%
- reduction of Cmax and AUC in the fasting state vs after a light meal (in vivo): 50-70%
